In ChEMBL document CHEMBL1909294, “Translating clinical findings into knowledge in drug safety evaluation--drug induced liver injury prediction system (DILIps)” (PLoS Comput Biol, 2011):
*1 amine or outer side, *2 acyl side, *3 side chain or, on linkers, in order; H or OH if unused. Where a SMILES comes first, the peptide text is derived from it. Bridges are numbered along the chain shown (N, C = ends). Roman numbers before positions name the chains, in order. [ ]: non-standard residue; d: D form. Actinocin(9to1) = Cc1c2oc3c(C)ccc(C(=O)[*:1])c3nc-2c(C(=O)[*:2])c(N)c1=O; NMeV = CN[C@H](C(=O)O)C(C)C; Sar = CNCC(=O)O

Key:
Hepatotoxicity [1] = tested on: Hepatotoxicity;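 for HepSE cholecystitis: Cholecystitis-related hepatic side effect score drawn from the DILIps (drug-induced liver injury prediction) training data set; call rule not given here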;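 for HepSE cholelithiasis: hepatic side effect score for cholelithiasis, drawn from the DILIps training data for predicting drug-induced liver injury; call rule not given here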;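 for HepSE elevated liver function tests: hepatic side effect score for raised liver function tests, as recorded in the DILIps training set used for predicting drug-induced liver injury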;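 for HepSE hepatomegaly: hepatic side effect score for hepatomegaly, taken from the training set of the DILIps drug-induced liver injury prediction system; call rule not given here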; for HepSE liver disease: call rule not given here;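 for HepSE liver function tests abnormal: hepatic side effect score taken from the DILIps (drug-induced liver injury prediction system) training data, here covering abnormal liver function test findings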
Hepatotoxicity [2] = tested on: Hepatotoxicity; remark: listed apart in the source;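 for HepSE cholecystitis: Cholecystitis-related hepatic side effect score drawn from the DILIps (drug-induced liver injury prediction) training data set; call rule not given here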;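 for HepSE cholelithiasis: hepatic side effect score for cholelithiasis, drawn from the DILIps training data for predicting drug-induced liver injury; call rule not given here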;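 for HepSE elevated liver function tests: hepatic side effect score for raised liver function tests, as recorded in the DILIps training set used for predicting drug-induced liver injury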;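 for HepSE hepatomegaly: hepatic side effect score for hepatomegaly, taken from the training set of the DILIps drug-induced liver injury prediction system; call rule not given here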; for HepSE liver disease: call rule not given here;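 for HepSE liver function tests abnormal: hepatic side effect score taken from the DILIps (drug-induced liver injury prediction system) training data, here covering abnormal liver function test findings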
Hepatotoxicity [3] = tested on: Hepatotoxicity; remark: listed apart in the source;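 for HepSE cholecystitis: Cholecystitis-related hepatic side effect score drawn from the DILIps (drug-induced liver injury prediction) training data set; call rule not given here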;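 for HepSE cholelithiasis: hepatic side effect score for cholelithiasis, drawn from the DILIps training data for predicting drug-induced liver injury; call rule not given here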;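 for HepSE elevated liver function tests: hepatic side effect score for raised liver function tests, as recorded in the DILIps training set used for predicting drug-induced liver injury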;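 for HepSE hepatomegaly: hepatic side effect score for hepatomegaly, taken from the training set of the DILIps drug-induced liver injury prediction system; call rule not given here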; for HepSE liver disease: call rule not given here;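 for HepSE liver function tests abnormal: hepatic side effect score taken from the DILIps (drug-induced liver injury prediction system) training data, here covering abnormal liver function test findings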
Hepatotoxicity [4] = tested on: Hepatotoxicity; remark: listed apart in the source;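 for HepSE cholecystitis: Cholecystitis-related hepatic side effect score drawn from the DILIps (drug-induced liver injury prediction) training data set; call rule not given here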;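 for HepSE cholelithiasis: hepatic side effect score for cholelithiasis, drawn from the DILIps training data for predicting drug-induced liver injury; call rule not given here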;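 for HepSE elevated liver function tests: hepatic side effect score for raised liver function tests, as recorded in the DILIps training set used for predicting drug-induced liver injury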;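 for HepSE hepatomegaly: hepatic side effect score for hepatomegaly, taken from the training set of the DILIps drug-induced liver injury prediction system; call rule not given here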; for HepSE liver disease: call rule not given here;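 for HepSE liver function tests abnormal: hepatic side effect score taken from the DILIps (drug-induced liver injury prediction system) training data, here covering abnormal liver function test findings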
Hepatotoxicity [5] = tested on: Hepatotoxicity; remark: listed apart in the source; for HepSE liver disease: call rule not given here
Hepatotoxicity [6] = tested on: Hepatotoxicity; remark: listed apart in the source; for HepSE liver disease: call rule not given here
Hepatotoxicity [7] = tested on: Hepatotoxicity; remark: listed apart in the source
Hepatotoxicity [8] = tested on: Hepatotoxicity; remark: listed apart in the source
Hepatotoxicity [9] = tested on: Hepatotoxicity; remark: listed apart in the source
Hepatotoxicity [10] = tested on: Hepatotoxicity; remark: listed apart in the source
Hepatotoxicity [11] = tested on: Hepatotoxicity; remark: listed apart in the source
Hepatotoxicity [12] = tested on: Hepatotoxicity; remark: listed apart in the source
Hepatotoxicity [13] = tested on: Hepatotoxicity; remark: listed apart in the source
Hepatotoxicity [14] = tested on: Hepatotoxicity; remark: listed apart in the source

SMILES: Cc1c2oc3c(C)ccc(C(=O)N[C@@H]4C(=O)N[C@H](C(C)C)C(=O)N5CCC[C@H]5C(=O)N(C)CC(=O)N(C)[C@@H](C(C)C)C(=O)O[C@@H]4C)c3nc-2c(C(=O)N[C@@H]2C(=O)N[C@H](C(C)C)C(=O)N3CCC[C@H]3C(=O)N(C)CC(=O)N(C)[C@@H](C(C)C)C(=O)O[C@@H]2C)c(N)c1=O [DACTINOMYCIN] (I: T[dV]P[Sar][NMeV] / II: T[dV]P[Sar][NMeV]; ester I:1-I:C, II:1-II:C; linker I:N-II:N via Actinocin(9to1))
- HepSE_hepatomegaly (Hepatotoxicity [1]): 0
- HepSE_liver function tests abnormal (Hepatotoxicity [2]): 0
- HepSE_liver disease (Hepatotoxicity [3]): 0
- HepSE_elevated liver function tests (Hepatotoxicity [4]): 0
- HepSE_cholelithiasis (Hepatotoxicity [5]): 0
- HepSE_cholecystitis (Hepatotoxicity [6]): 0
- HepSE_bilirubinemia (Hepatotoxicity [7]): 0
- HepSE_liver fatty (Hepatotoxicity [8]): 0
- HepSE_cirrhosis (Hepatotoxicity [9]): 0
- HepSE_Combined Scores (Hepatotoxicity [10]): 1
- HepSE_jaundice (Hepatotoxicity [11]): 0
- HepSE_hepatic necrosis (Hepatotoxicity [12]): 0
- HepSE_hepatitis (Hepatotoxicity [13]): 0
- HepSE_hepatic failure (Hepatotoxicity [14]): 1

SMILES: CNCCC(Oc1ccc(C(F)(F)F)cc1)c1ccccc1 (stereo not drawn) [FLUOXETINE]
- HepSE_hepatomegaly (Hepatotoxicity [1]): 1
- HepSE_liver function tests abnormal (Hepatotoxicity [2]): 1
- HepSE_liver disease (Hepatotoxicity [3]): 0
- HepSE_elevated liver function tests (Hepatotoxicity [4]): 0
- HepSE_cholelithiasis (Hepatotoxicity [5]): 1
- HepSE_cholecystitis (Hepatotoxicity [6]): 1
- HepSE_bilirubinemia (Hepatotoxicity [7]): 0
- HepSE_liver fatty (Hepatotoxicity [8]): 1
- HepSE_cirrhosis (Hepatotoxicity [9]): 0
- HepSE_Combined Scores (Hepatotoxicity [10]): 8
- HepSE_jaundice (Hepatotoxicity [11]): 1
- HepSE_hepatic necrosis (Hepatotoxicity [12]): 0
- HepSE_hepatitis (Hepatotoxicity [13]): 1
- HepSE_hepatic failure (Hepatotoxicity [14]): 1

SMILES: C[N+]1(C)[C@@H]2C[C@@H](OC(=O)C(O)(c3cccs3)c3cccs3)C[C@H]1[C@@H]1O[C@@H]12 [TIOTROPIUM]
- HepSE_hepatomegaly (Hepatotoxicity [1]): 0
- HepSE_liver function tests abnormal (Hepatotoxicity [2]): 0
- HepSE_liver disease (Hepatotoxicity [3]): 0
- HepSE_elevated liver function tests (Hepatotoxicity [4]): 0
- HepSE_cholelithiasis (Hepatotoxicity [5]): 0
- HepSE_cholecystitis (Hepatotoxicity [6]): 0
- HepSE_bilirubinemia (Hepatotoxicity [7]): 0
- HepSE_liver fatty (Hepatotoxicity [8]): 0
- HepSE_cirrhosis (Hepatotoxicity [9]): 0
- HepSE_Combined Scores (Hepatotoxicity [10]): 0
- HepSE_jaundice (Hepatotoxicity [11]): 0
- HepSE_hepatic necrosis (Hepatotoxicity [12]): 0
- HepSE_hepatitis (Hepatotoxicity [13]): 0
- HepSE_hepatic failure (Hepatotoxicity [14]): 0

SMILES: C[C@H](CS)C(=O)N1CCC[C@H]1C(=O)O [CAPTOPRIL]
- HepSE_hepatomegaly (Hepatotoxicity [1]): 0
- HepSE_liver function tests abnormal (Hepatotoxicity [2]): 0
- HepSE_liver disease (Hepatotoxicity [3]): 0
- HepSE_elevated liver function tests (Hepatotoxicity [4]): 0
- HepSE_cholelithiasis (Hepatotoxicity [5]): 0
- HepSE_cholecystitis (Hepatotoxicity [6]): 0
- HepSE_bilirubinemia (Hepatotoxicity [7]): 0
- HepSE_liver fatty (Hepatotoxicity [8]): 0
- HepSE_cirrhosis (Hepatotoxicity [9]): 0
- HepSE_Combined Scores (Hepatotoxicity [10]): 2
- HepSE_jaundice (Hepatotoxicity [11]): 1
- HepSE_hepatic necrosis (Hepatotoxicity [12]): 0
- HepSE_hepatitis (Hepatotoxicity [13]): 1
- HepSE_hepatic failure (Hepatotoxicity [14]): 0

SMILES: NCCC(O)(P(=O)(O)O)P(=O)(O)O [PAMIDRONIC ACID]
- HepSE_hepatomegaly (Hepatotoxicity [1]): 0
- HepSE_liver function tests abnormal (Hepatotoxicity [2]): 1
- HepSE_liver disease (Hepatotoxicity [3]): 0
- HepSE_elevated liver function tests (Hepatotoxicity [4]): 0
- HepSE_cholelithiasis (Hepatotoxicity [5]): 0
- HepSE_cholecystitis (Hepatotoxicity [6]): 0
- HepSE_bilirubinemia (Hepatotoxicity [7]): 0
- HepSE_liver fatty (Hepatotoxicity [8]): 0
- HepSE_cirrhosis (Hepatotoxicity [9]): 0
- HepSE_Combined Scores (Hepatotoxicity [10]): 1
- HepSE_jaundice (Hepatotoxicity [11]): 0
- HepSE_hepatic necrosis (Hepatotoxicity [12]): 0
- HepSE_hepatitis (Hepatotoxicity [13]): 0
- HepSE_hepatic failure (Hepatotoxicity [14]): 0

SMILES: C=C1/C(=C\C=C2/CCC[C@]3(C)[C@@H]([C@H](C)CCCC(C)(C)O)CC[C@@H]23)C[C@@H](O)C[C@@H]1O [CALCITRIOL]
- HepSE_hepatomegaly (Hepatotoxicity [1]): 0
- HepSE_liver function tests abnormal (Hepatotoxicity [2]): 0
- HepSE_liver disease (Hepatotoxicity [3]): 0
- HepSE_elevated liver function tests (Hepatotoxicity [4]): 0
- HepSE_cholelithiasis (Hepatotoxicity [5]): 0
- HepSE_cholecystitis (Hepatotoxicity [6]): 0
- HepSE_bilirubinemia (Hepatotoxicity [7]): 0
- HepSE_liver fatty (Hepatotoxicity [8]): 0
- HepSE_cirrhosis (Hepatotoxicity [9]): 0
- HepSE_Combined Scores (Hepatotoxicity [10]): 0
- HepSE_jaundice (Hepatotoxicity [11]): 0
- HepSE_hepatic necrosis (Hepatotoxicity [12]): 0
- HepSE_hepatitis (Hepatotoxicity [13]): 0
- HepSE_hepatic failure (Hepatotoxicity [14]): 0

SMILES: Cc1ccc(S(=O)(=O)NC(=O)NN2CC3CCCC3C2)cc1 (stereo not drawn) [GLICLAZIDE]
- HepSE_hepatomegaly (Hepatotoxicity [1]): 1
- HepSE_liver function tests abnormal (Hepatotoxicity [2]): 0
- HepSE_liver disease (Hepatotoxicity [3]): 0
- HepSE_elevated liver function tests (Hepatotoxicity [4]): 0
- HepSE_cholelithiasis (Hepatotoxicity [5]): 0
- HepSE_cholecystitis (Hepatotoxicity [6]): 0
- HepSE_bilirubinemia (Hepatotoxicity [7]): 0
- HepSE_liver fatty (Hepatotoxicity [8]): 0
- HepSE_cirrhosis (Hepatotoxicity [9]): 0
- HepSE_Combined Scores (Hepatotoxicity [10]): 4
- HepSE_jaundice (Hepatotoxicity [11]): 1
- HepSE_hepatic necrosis (Hepatotoxicity [12]): 0
- HepSE_hepatitis (Hepatotoxicity [13]): 1
- HepSE_hepatic failure (Hepatotoxicity [14]): 1

SMILES: Nc1nc2c(ncn2CCC(CO)CO)c(=O)[nH]1 [PENCICLOVIR]
- HepSE_hepatomegaly (Hepatotoxicity [1]): 0
- HepSE_liver function tests abnormal (Hepatotoxicity [2]): 0
- HepSE_liver disease (Hepatotoxicity [3]): 0
- HepSE_elevated liver function tests (Hepatotoxicity [4]): 0
- HepSE_cholelithiasis (Hepatotoxicity [5]): 0
- HepSE_cholecystitis (Hepatotoxicity [6]): 0
- HepSE_bilirubinemia (Hepatotoxicity [7]): 0
- HepSE_liver fatty (Hepatotoxicity [8]): 0
- HepSE_cirrhosis (Hepatotoxicity [9]): 0
- HepSE_Combined Scores (Hepatotoxicity [10]): 0
- HepSE_jaundice (Hepatotoxicity [11]): 0
- HepSE_hepatic necrosis (Hepatotoxicity [12]): 0
- HepSE_hepatitis (Hepatotoxicity [13]): 0
- HepSE_hepatic failure (Hepatotoxicity [14]): 0

SMILES: CC[C@H]1OC(=O)[C@H](C)[C@@H](O[C@H]2C[C@@](C)(OC)[C@@H](O)[C@H](C)O2)[C@H](C)[C@@H](O[C@@H]2O[C@H](C)C[C@H](N(C)C)[C@H]2O)[C@](C)(O)C[C@@H](C)CN(C)[C@H](C)[C@@H](O)[C@]1(C)O [AZITHROMYCIN]
- HepSE_hepatomegaly (Hepatotoxicity [1]): 0
- HepSE_liver function tests abnormal (Hepatotoxicity [2]): 1
- HepSE_liver disease (Hepatotoxicity [3]): 0
- HepSE_elevated liver function tests (Hepatotoxicity [4]): 0
- HepSE_cholelithiasis (Hepatotoxicity [5]): 0
- HepSE_cholecystitis (Hepatotoxicity [6]): 0
- HepSE_bilirubinemia (Hepatotoxicity [7]): 0
- HepSE_liver fatty (Hepatotoxicity [8]): 0
- HepSE_cirrhosis (Hepatotoxicity [9]): 0
- HepSE_Combined Scores (Hepatotoxicity [10]): 5
- HepSE_jaundice (Hepatotoxicity [11]): 1
- HepSE_hepatic necrosis (Hepatotoxicity [12]): 1
- HepSE_hepatitis (Hepatotoxicity [13]): 1
- HepSE_hepatic failure (Hepatotoxicity [14]): 1

SMILES: Cc1onc(-c2c(Cl)cccc2Cl)c1C(=O)N[C@@H]1C(=O)N2[C@@H]1SC(C)(C)[C@@H]2C(=O)O [DICLOXACILLIN]
- HepSE_hepatomegaly (Hepatotoxicity [1]): 0
- HepSE_liver function tests abnormal (Hepatotoxicity [2]): 1
- HepSE_liver disease (Hepatotoxicity [3]): 0
- HepSE_elevated liver function tests (Hepatotoxicity [4]): 0
- HepSE_cholelithiasis (Hepatotoxicity [5]): 0
- HepSE_cholecystitis (Hepatotoxicity [6]): 0
- HepSE_bilirubinemia (Hepatotoxicity [7]): 0
- HepSE_liver fatty (Hepatotoxicity [8]): 0
- HepSE_cirrhosis (Hepatotoxicity [9]): 0
- HepSE_Combined Scores (Hepatotoxicity [10]): 2
- HepSE_jaundice (Hepatotoxicity [11]): 0
- HepSE_hepatic necrosis (Hepatotoxicity [12]): 0
- HepSE_hepatitis (Hepatotoxicity [13]): 1
- HepSE_hepatic failure (Hepatotoxicity [14]): 0

SMILES: Nc1ccn([C@@H]2O[C@H](CO)[C@@H](O)[C@@H]2O)c(=O)n1 [CYTARABINE]
- HepSE_hepatomegaly (Hepatotoxicity [1]; Liver): 0
- HepSE_liver function tests abnormal (Hepatotoxicity [2]; Liver): 0
- HepSE_liver disease (Hepatotoxicity [3]; Liver): 0
- HepSE_elevated liver function tests (Hepatotoxicity [4]; Liver): 0
- HepSE_cholelithiasis (Hepatotoxicity [5]; Liver): 0
- HepSE_cholecystitis (Hepatotoxicity [6]; Liver): 0
- HepSE_bilirubinemia (Hepatotoxicity [7]; Liver): 1
- HepSE_liver fatty (Hepatotoxicity [8]; Liver): 0
- HepSE_cirrhosis (Hepatotoxicity [9]; Liver): 0
- HepSE_Combined Scores (Hepatotoxicity [10]; Liver): 2
- HepSE_jaundice (Hepatotoxicity [11]; Liver): 1
- HepSE_hepatic necrosis (Hepatotoxicity [12]; Liver): 0
- HepSE_hepatitis (Hepatotoxicity [13]; Liver): 0
- HepSE_hepatic failure (Hepatotoxicity [14]; Liver): 0

SMILES: O=C(O[C@@H]1C[C@@H]2C[C@H]3C[C@H](C1)N2CC3=O)c1c[nH]c2ccccc12 [DOLASETRON]
- HepSE_hepatomegaly (Hepatotoxicity [1]): 0
- HepSE_liver function tests abnormal (Hepatotoxicity [2]): 0
- HepSE_liver disease (Hepatotoxicity [3]): 1
- HepSE_elevated liver function tests (Hepatotoxicity [4]): 0
- HepSE_cholelithiasis (Hepatotoxicity [5]): 0
- HepSE_cholecystitis (Hepatotoxicity [6]): 0
- HepSE_bilirubinemia (Hepatotoxicity [7]): 1
- HepSE_liver fatty (Hepatotoxicity [8]): 0
- HepSE_cirrhosis (Hepatotoxicity [9]): 0
- HepSE_Combined Scores (Hepatotoxicity [10]): 2
- HepSE_jaundice (Hepatotoxicity [11]): 0
- HepSE_hepatic necrosis (Hepatotoxicity [12]): 0
- HepSE_hepatitis (Hepatotoxicity [13]): 0
- HepSE_hepatic failure (Hepatotoxicity [14]): 0
